Test systems include DU-145 prostate; MDA-MB-231 breast; PC-3 prostate; MCF7 breast.
Assay in all cases: DTP human tumour cell line panel, 48 h

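Cultured in 96-well plates, cells were exposed to test compound for 48 hours across five concentrations. At the GI50, growth is halved. TGI denotes the concentration required for complete inhibition of growth.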

A word on the GI50: it is the concentration at which growth is held to half of that of the control. For orientation: TGI means the concentration at which net growth stops. A higher TGI goes with lower sensitivity of the cells. For `O=c1c2ccccc2c(C=NCCNCCO)c2oc3ccccc3n12`, the GI50 with DU-145 prostate is 12.1 µM; in the assay on MDA-MB-231 breast, 11500 nM; in the assay on PC-3 prostate, 13900 nM. Further, the TGI in the assay on DU-145 prostate was 24.5 µM; with MDA-MB-231 breast, 24.4 µM; in the assay on PC-3 prostate, 34.1 µM.

`COc1cccc2c1C(=O)c1c(O)c3c(c(O)c1C2=O)C[C@@](O)(C(=O)COC(=O)c1cccnc1)C[C@@H]3OC1CC(N)C(O)C(C)O1` (some centres not stated): the 50% growth inhibitory concentration (GI50) was 0.223 µM in the assay with DU-145 prostate, 33 nM in the assay on MCF7 breast, 327 nM in the assay with MDA-MB-231 breast and 222 nM with PC-3 prostate. Besides, the TGI in the assay with DU-145 prostate was found to be 14.1 µM; in the assay with MCF7 breast, 2.08 µM; in the assay with MDA-MB-231 breast it was 1.96 µM; in the assay on PC-3 prostate it was 1.43 µM.

Regarding `O=c1cc(-c2ccccc2)oc2cc(OCc3cn(Cc4ccc(F)cc4)nn3)cc(O)c12`, in the assay on DU-145 prostate, the GI50 is above 100 µM and the TGI was above 100 µM. In addition, in the assay with MDA-MB-231 breast, the GI50 is 16600 nM and the TGI was above 100 µM.

For `COc1ccccc1NC(=O)N/C(N)=N/c1nc2ccccc2s1`, the GI50 is 0.159 µM in the assay with DU-145 prostate, 40.1 nM in the assay on MCF7 breast, 3480 nM in the assay with MDA-MB-231 breast and 90.6 nM with PC-3 prostate. The TGI with DU-145 prostate, in the assay with MCF7 breast, in the assay with MDA-MB-231 breast and in the assay with PC-3 prostate was above 100 µM each time.

As for `CC(C)(C)c1ccc(NC(=O)c2cc(=O)c3ccccc3[nH]2)c(C(C)(C)C)c1O`, the GI50 is 10.7 µM in the assay on DU-145 prostate, 3350 nM with MCF7 breast, 3290 nM in the assay with MDA-MB-231 breast and 2600 nM in the assay with PC-3 prostate. For the same molecule, the TGI in the assay on DU-145 prostate was 23.5 µM; with MCF7 breast, 12.9 µM; in the assay with MDA-MB-231 breast, 13.9 µM; with PC-3 prostate, 8.29 µM.

As for `CC(=O)OC1C(O)COC(Oc2c(C)c3c4c(c2O)[C@@H](C)CC[C@@H]4[C@@H](C)C[C@H]3C=C(C)C)C1O` (some centres not stated), the GI50 was 12.8 µM with DU-145 prostate, 17200 nM in the assay with MCF7 breast and 11300 nM in the assay with PC-3 prostate. Besides, the figures for the TGI in the assay with DU-145 prostate, in the assay on MCF7 breast and with PC-3 prostate were 29 µM, above 100 µM and 26.3 µM, respectively.

As to `COc1cc2c(c(OC)c1OC)C(=O)c1c-2n(CCCN)c(=O)c2cc([N+](=O)[O-])ccc12`, the GI50 is 0.962 µM in the assay on DU-145 prostate, 250 nM with MCF7 breast, 1800 nM with MDA-MB-231 breast and 736 nM in the assay on PC-3 prostate. Further, the TGI was determined as 2.31 µM in the assay with DU-145 prostate, 4 µM with MDA-MB-231 breast and 3.43 µM with PC-3 prostate.

`CC(=O)OC1CC(C)c2c1ncnc2N1CCN(C(=O)OC(C)(C)C)CC1` (configuration not stated): the GI50 with DU-145 prostate was 31.9 µM; in the assay with MCF7 breast it was 39100 nM; in the assay on MDA-MB-231 breast, 42800 nM; in the assay with PC-3 prostate, 38700 nM. In addition, the TGI with DU-145 prostate was 86.9 µM; with MCF7 breast it was above 100 µM; in the assay with MDA-MB-231 breast it was above 100 µM; in the assay on PC-3 prostate it was above 100 µM.

Turning to `C=C(C)[C@@H]1CC[C@]2(c3ncc(C)o3)CC[C@]3(C)[C@H](CC[C@@H]4[C@@](C)(CCC#N)[C@H](C(=C)C)CC[C@]43C)[C@@H]12`, the GI50 is 3.54 µM with DU-145 prostate, 2870 nM with MCF7 breast, 2530 nM in the assay with MDA-MB-231 breast and 1830 nM in the assay with PC-3 prostate. Moreover, the TGI in the assay on DU-145 prostate turned out to be 13.2 µM; in the assay with MCF7 breast it was 10.5 µM; in the assay with MDA-MB-231 breast it was 6.41 µM; in the assay on PC-3 prostate, 4 µM.

Take `COc1ccc(-n2nc(C)c3c(Nc4ccc(NC(=O)Nc5cc(C(F)(F)F)ccc5F)cc4)ncnc32)cc1`: the GI50 in the assay on DU-145 prostate is 3.65 µM; in the assay on MCF7 breast it was 2690 nM; in the assay with MDA-MB-231 breast, 1610 nM; with PC-3 prostate, 2130 nM. Also, the TGI is above 100 µM in the assay with DU-145 prostate, 14.7 µM in the assay on MCF7 breast, 3.55 µM in the assay on MDA-MB-231 breast and 6.85 µM in the assay with PC-3 prostate.

In the case of `CCOc1ccc2c(-c3ccnc(Nc4cccc(C(F)(F)F)c4)n3)cnn2n1`, the GI50 in the assay on DU-145 prostate was above 19.5 µM; with MCF7 breast, 979 nM; in the assay with MDA-MB-231 breast, 14700 nM; with PC-3 prostate it was above 16100 nM. For the same molecule, the TGI with DU-145 prostate was above 25 µM; with MCF7 breast, above 12.2 µM; in the assay with MDA-MB-231 breast, above 25 µM; with PC-3 prostate it was above 25 µM.

For the molecule `CNC1=C(Br)C(=O)C2=C(C1=O)C1C3=C(C(=O)C=CC3=O)C2c2ccccc21` (configuration not stated), the GI50 with DU-145 prostate was 4.06 µM; in the assay with MCF7 breast, 2250 nM; with MDA-MB-231 breast, 2940 nM; in the assay on PC-3 prostate, 1380 nM. Besides, the TGI in the assay on DU-145 prostate amounted to 10.3 µM; in the assay on MCF7 breast it was 5.62 µM; with MDA-MB-231 breast it was 4.93 µM.

Turning to `c1ccc(CN2CCC3(CC2)ONC2=NCCN23)cc1`, the GI50 in the assay with DU-145 prostate was above 100 µM; in the assay on MCF7 breast, 71300 nM; with MDA-MB-231 breast it was above 100000 nM; in the assay with PC-3 prostate, 49500 nM. Moreover, the TGI in the assay with DU-145 prostate, in the assay with MCF7 breast, in the assay on MDA-MB-231 breast and in the assay on PC-3 prostate was above 100 µM in each case.

As to `COc1ccc(S(=O)(=O)N2CCCCC2)cc1NC(=O)c1[nH]c(C)c2c1CCCCC2=O`, the GI50 was 7.56 µM in the assay on DU-145 prostate, 666 nM in the assay on MCF7 breast, 718 nM with MDA-MB-231 breast and 2600 nM with PC-3 prostate. The TGI in the assay on DU-145 prostate, in the assay on MCF7 breast, with MDA-MB-231 breast and in the assay on PC-3 prostate was above 100 µM each time.

For the molecule `CCCN(CCC)c1ccc(C=O)c(OC)c1`, the GI50 in the assay with DU-145 prostate is 26.6 µM; in the assay with MCF7 breast, 19100 nM; in the assay with PC-3 prostate, 29100 nM. The values for the TGI in the assay on DU-145 prostate, in the assay with MCF7 breast and in the assay on PC-3 prostate were above 100 µM, 81.3 µM and above 100 µM, respectively.

On to `Cn1c(-c2c(N)n(Cc3ccc(Cl)cc3)c3nc(C#N)c(C#N)nc23)nc2ccccc21`, for which the GI50 in the assay with DU-145 prostate was 5.94 µM; in the assay with MCF7 breast, 3940 nM; with MDA-MB-231 breast, 1690 nM; in the assay with PC-3 prostate, 4620 nM. Moreover, the TGI with DU-145 prostate is 17.4 µM; with MCF7 breast, above 50 µM; in the assay on MDA-MB-231 breast, 9.41 µM; in the assay on PC-3 prostate, above 50 µM.

On to `C[C@]1(O)CC(=O)[C@]2(O)C3=C(C=C[C@]2(O)C1)C(=O)c1c(O)cccc1C3=O`, for which the GI50 is 1.75 µM with DU-145 prostate, 2250 nM in the assay on MDA-MB-231 breast and 2420 nM with PC-3 prostate. The TGI came to 3.24 µM in the assay with DU-145 prostate, 6.6 µM in the assay with MDA-MB-231 breast and 10.1 µM in the assay with PC-3 prostate.

(Values after PubChem BioAssay (NCI).)
